Ends that are not written are not given here.

Experiment [1] relates to monoclonal antibody MV-002 binding to the original epitope. The experiment can be described thus: In vitro inhibition assay (ELISA). Set-up: species or system mice. Particulars: for Inhibition Capacity (competition code): OD at 5 ug peptide compared to original peptide, MV-002; for inhibition in in vitro inhibition/competition assay: MV-002, original epitope coated on ELISA plates. How it is done:
2. In Vitro Inhibition Assay (ELISA)
Different amounts of peptides (concentrations ranging from 5 μg to 0.03 μg; serial dilutions), derived from Phage Display were incubated with the monoclonal antibody that was used for the screening procedure. Peptides diminishing subsequent binding of the antibody to the original epitope coated on ELISA plates were considered as inhibiting in this assay.

Experiment [2] concerns monoclonal antibody MV-002. The experiment is described as follows: In vitro binding assay (ELISA) of mimotopes to parental antibody. Set-up: species or system mice. Particulars: peptide coupled to BSA bound to ELISA plates (1 μM); parental antibody MV-002. How it is done:
1. In Vitro Binding Assay (ELISA)
Peptides derived from Phage Display as well as variants thereof were coupled to BSA and bound to ELISA plates (1 μM; as indicated in the respective figures) and subsequently incubated with the monoclonal antibody that was used for the screening procedure to analyse binding capacity of identified peptides.

The test system of another experiment is original epitope p4377. The experiment can be described thus: Mimotope vaccination of mice, serum titer ELISA against original epitope. The format is in vivo, C57/B16 mice. The settings on record: 30 μg peptide-KLH, alum, s.c., FIG. 5. How it is done:
(§1) Inhibiting as well as non-inhibiting peptides were coupled to KLH and injected into mice (wildtype C57/B16 mice; subcutaneous injection into the flank) together with an appropriate adjuvant (aluminium hydroxide). Animals were vaccinated 3-6 times in biweekly intervals and sera were taken biweekly as well. Titers to injected peptides, as well as to an irrelevant peptide were determined with every serum. Furthermore, titers against the recombinant human Aβ protein, and against original peptides were determined respectively. In general sera were analysed by reaction against peptides coupled to Bovine Serum Albumin (BSA) and recombinant full length proteins which were immobilised on ELISA plates. Titers were determined using anti mouse IgG specific antibodies. For detailed results see FIGS. 4, 5 and 6 respectively.
(§2) Female C57/b16 mice, 5-6 mice per group, were subcutaneously immunized with 30 μg peptide coupled to KLH. Control groups were administered original epitope-KLH conjugates respectively. As adjuvant alum was used (always 1 mg per mouse). […] The in vitro ELISA assay to determine the antibody titer was performed with sera of single mice after each vaccination in a two week interval (see FIGS. 6 and 7 respectively). Titers were calculated as OD max/2 in all figures shown. The wells of the ELISA plate were coated with mimotope-BSA conjugate and an irrelevant peptide-BSA conjugate (negative control). The positive control was performed by reaction of the parental antibody with the respective mimotope-BSA conjugate. The detection was performed with anti-mouse IgG. Additionally, recombinant proteins were immobilised on ELISA plates and sera reacted accordingly. FIGS. 4, 5 and 6 show representative examples for assays used to characterise mimotopes in vivo.

Another experiment deals with injected peptide. The experiment is described as follows: Mimotope vaccination of mice, serum titer ELISA against injected peptide. The format is in vivo, C57/B16 mice. Particulars: 30 μg peptide-KLH, alum, s.c., FIG. 4. How it is done: as §1, §2
Experiment [3] has as its system p1454 (unrelated sequence). The experiment can be described thus: Mimotope vaccination of mice, serum titer ELISA against irrelevant peptide. Particulars: 30 μg peptide-KLH, alum, s.c., FIG. 4. The format is in vivo, C57/B16 mice. On the procedure: as §1, §2
For experiment [4], the system named is amyloid plaques (Aβ40/42) in brain. The experiment can be described thus: Area occupied by amyloid plaques in Tg2576 AD mouse model. The format is in vivo. Particulars: Tg2576 mice.

As for “GEIKFDHC [p4698, MV-002 mimotope peptide]”, in experiment [1], the “Inhibition Capacity (competition code)” value is on record as 2 (strong inhibition (as original epitope; OD of peptide below 2, 3 times of original peptide)). In addition, the “Binding Capacity (binding code; OD halfmax 1:X, dilution factor of the parental AB)” value (shortened to “Binding Capacity”) in experiment [2] is 3 (strong binding :>320000).

As for “HQKMIFC [p4794, MV-002 mimotope peptide]”, in experiment [1], the “Inhibition Capacity (competition code)” value was 1 (Weaker than original epitope (OD of peptide below 4, 6 times of original peptide)). Moreover, the “Binding Capacity” value in experiment [2] is given as 2 (medium binding :40000-320000).

For “SHQRLWFC [p4674, MV-002 mimotope peptide]”, the “Inhibition Capacity (competition code)” value in experiment [1] is 1 (Weaker than original epitope (OD of peptide below 4, 6 times of original peptide)). In addition, in experiment [2], the “Binding Capacity” value is 3 (strong binding :>320000).

For the substance “NDAKIVFC [p4667, MV-002 mimotope peptide]”, in experiment [1], the “Inhibition Capacity (competition code)” value is listed as 1 (Weaker than original epitope (OD of peptide below 4, 6 times of original peptide)). Also, the “Binding Capacity” value in experiment [2] is recorded as 3 (strong binding :>320000).

For the substance “SHTRLYFC [p4403, MV-002 mimotope peptide]”, the “immune response against the original epitope p4377” value in the experiment on original epitope p4377 was “mounted detectable immune responses”. Besides, the “inhibition in in vitro inhibition/competition assay” value in experiment [1] is recorded as “without inhibition capacity”. In experiment [2], the “Binding Capacity” value is given as 1 (weak binding :<40000). Moreover, the “immune response against injected peptide” value in the experiment with injected peptide is reported as “elicited immune responses”. The “unspecific immune response against unrelated sequence (p1454)” value (“unspecific immune response” below) in experiment [3] is “failed to induce a relevant unspecific immune response”.

With “GELWFPC [p4673, MV-002 mimotope peptide]”, the “Inhibition Capacity (competition code)” value in experiment [1] is 1 (Weaker than original epitope (OD of peptide below 4, 6 times of original peptide)). Also, the “Binding Capacity” value in experiment [2] is 3 (strong binding :>320000).

As to “GEIRFGSC [p4696, MV-002 mimotope peptide]”, the “Binding Capacity” value in experiment [2] is reported as 3 (strong binding :>320000).

As for “GEMWFALC [p4671, MV-002 mimotope peptide]”, the “Binding Capacity” value in experiment [2] is given as 3 (strong binding :>320000).

In the case of “GEIYFERC [p4681, MV-002 mimotope peptide]”, the “immune response against the original epitope p4377” value in the experiment on original epitope p4377 was “mounted detectable immune responses”. For the same substance, in experiment [1], the “inhibition in in vitro inhibition/competition assay” value is “active in in vitro inhibition assays” and the “Inhibition Capacity (competition code)” value is listed as 2 (strong inhibition (as original epitope; OD of peptide below 2, 3 times of original peptide)). Further, in experiment [2], the “Binding Capacity” value was 3 (strong binding :>320000). In addition, the “immune response against injected peptide” value in the experiment with injected peptide is on record as “elicited immune responses”. Moreover, the “unspecific immune response” value in experiment [3] is “failed to induce a relevant unspecific immune response”.

Turning to “GEIQFGAC [p4699, MV-002 mimotope peptide]”, the “Inhibition Capacity (competition code)” value in experiment [1] is 1 (Weaker than original epitope (OD of peptide below 4, 6 times of original peptide)). The “Binding Capacity” value in experiment [2] is reported as 3 (strong binding :>320000).

For “GEILFGMC [p4689, MV-002 mimotope peptide]”, the “Inhibition Capacity (competition code)” value in experiment [1] is listed as 1 (Weaker than original epitope (OD of peptide below 4, 6 times of original peptide)). Moreover, the “Binding Capacity” value in experiment [2] was 3 (strong binding :>320000).

For “Ac-GEIYFERC [p4804, MV-002 mimotope peptide, N-terminally acetylated]”, the “Binding Capacity” value in experiment [2] is reported as 2 (medium binding :40000-320000).

As to “QLPLFVLC [p4700, MV-002 mimotope peptide]”, the “Binding Capacity” value in experiment [2] is given as 1 (weak binding :<40000).

For the substance EVHHQKLVFC [p4377, reference compound], the “immune response against the original epitope p4377” value with original epitope p4377 is “mounted detectable immune responses”. In the experiment on injected peptide, the “immune response against injected peptide” value is “elicited immune responses”. For the same substance, the “unspecific immune response” value in experiment [3] is “failed to induce a relevant unspecific immune response”.

Turning to “GELYFRAC [p4677, MV-002 mimotope peptide]”, the “Binding Capacity” value in experiment [2] was 3 (strong binding :>320000).

Consider “GQIMFPRC [p4686, MV-002 mimotope peptide]”, for which, in experiment [2], the “Binding Capacity” value is listed as 3 (strong binding :>320000).

As for “HQKMIFAC [p4675, MV-002 mimotope peptide; used as KLH conjugate vaccine in Tg2576 mice]”, the “reduction of area occupied by amyloid plaques following mimotope treatment” value in experiment [4] (group 2 versus PBS-ALUM control) was 31%. Further, in experiment [4] (peptide-KLH conjugate adsorbed to ALUM, s.c. 6 times at monthly intervals, mAb 3A5 staining, control 0.35%), the “average area occupied by amyloid plaques” value amounted to 0.24%. The “immune response against the original epitope p4377” value in the experiment with original epitope p4377 is recorded as “mounted detectable immune responses”. For the same substance, in experiment [1], the “inhibition in in vitro inhibition/competition assay” value was “active in in vitro inhibition assays” and the “Inhibition Capacity (competition code)” value was 2 (strong inhibition (as original epitope; OD of peptide below 2, 3 times of original peptide)). In addition, in experiment [2], the “Binding Capacity” value was 3 (strong binding :>320000). The “immune response against injected peptide” value in the experiment on injected peptide is recorded as “elicited immune responses”. Besides, the “unspecific immune response” value in experiment [3] was “failed to induce a relevant unspecific immune response”.

As to “GELQFPPC [p4672, MV-002 mimotope peptide]”, in experiment [2], the “Binding Capacity” value is given as 3 (strong binding :>320000).

“GELFFPKC [p4685, MV-002 mimotope peptide]”: the “Binding Capacity” value in experiment [2] is 3 (strong binding :>320000).

On to “HMRLFFNC [p4670, MV-002 mimotope peptide]”, for which the “immune response against the original epitope p4377” value in the experiment on original epitope p4377 is given as “mounted detectable immune responses”. In experiment [1], the “inhibition in in vitro inhibition/competition assay” value was “active in in vitro inhibition assays” and the “Inhibition Capacity (competition code)” value is recorded as 1 (Weaker than original epitope (OD of peptide below 4, 6 times of original peptide)). Moreover, the “Binding Capacity” value in experiment [2] was 3 (strong binding :>320000). Moreover, in the experiment with injected peptide, the “immune response against injected peptide” value is given as “elicited immune responses”. In addition, in experiment [3], the “unspecific immune response” value was “failed to induce a relevant unspecific immune response”.

As to “GEIWFEGC [p4680, MV-002 mimotope peptide]”, the “immune response against the original epitope p4377” value in the experiment with original epitope p4377 was “mounted detectable immune responses”. In experiment [1], the “inhibition in in vitro inhibition/competition assay” value is listed as “active in in vitro inhibition assays” and the “Inhibition Capacity (competition code)” value is 2 (strong inhibition (as original epitope; OD of peptide below 2, 3 times of original peptide)). In experiment [2], the “Binding Capacity” value is on record as 3 (strong binding :>320000). The “immune response against injected peptide” value in the experiment with injected peptide was “elicited immune responses”. Moreover, the “unspecific immune response” value in experiment [3] was “failed to induce a relevant unspecific immune response”.

Take “GTLIFHHC [p4695, MV-002 mimotope peptide]”: the “Binding Capacity” value in experiment [2] was 2 (medium binding :40000-320000).

Source of the values: US8409581B2, “Compounds for treating amyloidoses” (Affiris AG, priority 2008, dated 2013).
